These are literature values, as cited in patent publication US11802256B2, “Method for extracting palmitoleic acid from macadamia integrifolia and use thereof” (SOUTHWEST FORESTRY UNIVERSITY, priority 2021, dated 2023).

One data set concerns the target T1, tyrosinase (Mus musculus, UniProt P11344).
T1 construct: host or cells: mouse melanocytes / mouse melanoma cells (endogenous)
T1 sequence (P11344 19-533): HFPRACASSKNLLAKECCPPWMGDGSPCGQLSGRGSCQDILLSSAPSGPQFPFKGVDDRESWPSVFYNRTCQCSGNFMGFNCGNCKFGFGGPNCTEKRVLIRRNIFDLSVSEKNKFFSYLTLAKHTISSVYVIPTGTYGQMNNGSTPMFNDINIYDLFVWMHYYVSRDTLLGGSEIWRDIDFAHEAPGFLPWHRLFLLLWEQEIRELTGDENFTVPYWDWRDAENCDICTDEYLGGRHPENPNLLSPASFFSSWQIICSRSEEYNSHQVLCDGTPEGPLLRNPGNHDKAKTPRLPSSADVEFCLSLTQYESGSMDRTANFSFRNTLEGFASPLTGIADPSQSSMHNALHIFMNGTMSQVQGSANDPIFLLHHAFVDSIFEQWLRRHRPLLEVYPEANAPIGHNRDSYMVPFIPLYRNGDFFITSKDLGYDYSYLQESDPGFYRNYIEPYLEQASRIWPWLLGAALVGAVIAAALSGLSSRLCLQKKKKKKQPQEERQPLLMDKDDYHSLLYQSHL
The conditions noted are these: mouse melanocytes, at a protein level.

On to `CCCCCC/C=C\CCCCCCCC(=O)O` [palmitoleic acid], for which the “inhibitory effect on melanin production” value with mouse melanoma cells is listed as “strong inhibitory effect”. Besides, on tyrosinase, the tyrosinase activity result was “inhibits tyrosinase activity”.
